This is an account of results in ChEMBL document CHEMBL4373739, “6-Cinnamoyl-4-arylaminothienopyrimidines as highly potent cytotoxic agents: Design, synthesis and structure-activity relationship studies” (Eur J Med Chem, 2020).

A word on the IC50: it is the concentration needed to halve the response being measured.

Each structure is given as a SMILES string. Active and inactive are the calls of the source. No cut-off for these calls is given here.

The test system of data set [1] is HeLa. The experiment in a line: Antiproliferative activity against human HeLa cells incubated for 48 hrs by MTT assay. Format: functional, cell-based. (Tetrazolium assays rely on reduction of a dye to a coloured formazan, in cell work by metabolically active cells.)
A further data set has as its system MDA-MB-231. The experiment in a line: Antiproliferative activity against human MDA-MB-231 cells incubated for 48 hrs by MTT assay. Format: functional, cell-based. Conditions: MDA-MB-231, 48 h.
The subject of another data set is PC-3. The experiment in a line: Antiproliferative activity against human PC3 cells incubated for 48 hrs by MTT assay. The format is functional, cell-based. The settings on record: PC-3, 48 h.
The next data set concerns HepG2. Description: Antiproliferative activity against human HepG2 cells incubated for 48 hrs by MTT assay. The format is functional, cell-based. Conditions: HepG2, 48 h.
For the next data set, the system named is A549. Description: Antiproliferative activity against human A549 cells incubated for 48 hrs by MTT assay. Format: functional, cell-based. The settings on record: A549, 48 h.
For another data set, the system named is MCF7. Description: Antiproliferative activity against human MCF7 cells incubated for 48 hrs by MTT assay. The settings on record: MCF7, 48 h. The format is functional, cell-based.
Another data set concerns SK-BR-3. Description: Antiproliferative activity against human SKBR3 cells incubated for 48 hrs by MTT assay. The format is functional, cell-based. The settings on record: SK-BR-3, 48 h.
For another data set, the system named is SK-OV-3. Description: Antiproliferative activity against human SKOV3 cells incubated for 48 hrs by MTT assay. The format is functional, cell-based. The settings on record: SK-OV-3, 48 h.
The subject of data set [2] is HeLa. Description: Induction of apoptosis in human HeLa cells assessed as late apoptotic cells after 48 hrs by AnnexinV-APC/propidium iodide staining based FACScalibur flow cytometry analysis (reference value: 4.30 %). Format: functional. A general note: Flow cytometry measures light scatter and fluorescence of single cells or particles in a stream.
The next data set deals with HCT-116. Description: Antiproliferative activity against human HCT116 cells incubated for 48 hrs by MTT assay. The format is functional, cell-based. The settings on record: HCT-116, 48 h.
Data set [3] deals with HeLa. Description: Induction of apoptosis in human HeLa cells assessed as live cells after 48 hrs by AnnexinV-APC/propidium iodide staining based FACScalibur flow cytometry analysis (reference value: 92 %). Format: functional.
The next data set deals with U-87 MG. Description: Antiproliferative activity against human U87 cells incubated for 48 hrs by MTT assay. The format is functional, cell-based, U-87MG ATCC.
In the next data set the test system is SW480. The experiment in a line: Antiproliferative activity against human SW480 cells incubated for 48 hrs by MTT assay. Conditions: SW480, 48 h. Format: functional, cell-based.
The test system of data set [4] is HeLa. The experiment in a line: Induction of apoptosis in human HeLa cells assessed as early apoptotic cells after 48 hrs by AnnexinV-APC/propidium iodide staining based FACScalibur flow cytometry analysis (reference value: 3.23 %). The format is functional.
For data set [5], the system named is HeLa. Description: Induction of apoptosis in human HeLa cells assessed as necrotic cells after 48 hrs by AnnexinV-APC/propidium iodide staining based FACScalibur flow cytometry analysis (reference value: 0.457 %). The format is functional.
Data set [6] concerns HeLa. Description: Induction of apoptosis in human HeLa cells assessed as early apoptotic cells at IC50 concentration after 48 hrs by AnnexinV-APC/propidium iodide staining based FACScalibur flow cytometry analysis (reference value: 3.23 %). Format: functional.
Data set [7] addresses Epidermal growth factor receptor (Homo sapiens) (UniProt P00533). The experiment in a line: Inhibition of EGFR phosphorylation in human HeLa cells at IC50 concentration measured upto 48 hrs by Western blot analysis. Format: cell-based. In general terms: Immunoblotting shows a protein as a band on a membrane.
Data set [8] is described as follows: Selectivity index, ratio of IC50 for human MRC5 to IC50 for human A549. Format: toxicity. The settings on record: MRC5 cells and A549 cells, read-out: Ratio IC50.
The test system of another data set is MRC5. The experiment in a line: Cytotoxicity against human MRC5 cells incubated for 48 hrs by MTT assay. Format: cell-based. Conditions: MRC5, 48 h.
In data set [9] the test system is HeLa. The experiment in a line: Induction of apoptosis in human HeLa cells assessed as late apoptotic cells at IC50 concentration after 48 hrs by AnnexinV-APC/propidium iodide staining based FACScalibur flow cytometry analysis (reference value: 4.30 %). Format: functional.
For data set [10], the system named is HeLa. The experiment in a line: Induction of apoptosis in human HeLa cells assessed as necrotic cells at IC50 concentration after 48 hrs by AnnexinV-APC/propidium iodide staining based FACScalibur flow cytometry analysis (reference value: 0.457 %). The format is functional.
Data set [11] addresses Epidermal growth factor receptor (Homo sapiens) (UniProt P00533). Description: Inhibition of EGFR in human HeLa cells assessed as reduction in ERK 1/2 phosphorylation at IC50 concentration measured upto 48 hrs by Western blot analysis. Format: cell-based.
The target is the same in data set [12]. The experiment in a line: Inhibition of EGFR in human HeLa cells assessed as effect on AKT phosphorylation at IC50 concentration measured upto 48 hrs by Western blot analysis. The format is cell-based.
For data set [13], the system named is HeLa. The experiment in a line: Induction of cell cycle arrest in human HeLa cells assessed as increase in cell population at sub-G1 phase at IC50 concentration after 48 hrs by RNase/propidium iodide staining based flow cytometry analysis. The format is functional.
Data set [14] concerns HeLa. The experiment in a line: Induction of apoptosis in human HeLa cells assessed as live cells at IC50 concentration after 48 hrs by AnnexinV-APC/propidium iodide staining based FACScalibur flow cytometry analysis (reference value: 92 %). The format is functional.

Sequence of Epidermal growth factor receptor (Homo sapiens) (P00533 whole entry): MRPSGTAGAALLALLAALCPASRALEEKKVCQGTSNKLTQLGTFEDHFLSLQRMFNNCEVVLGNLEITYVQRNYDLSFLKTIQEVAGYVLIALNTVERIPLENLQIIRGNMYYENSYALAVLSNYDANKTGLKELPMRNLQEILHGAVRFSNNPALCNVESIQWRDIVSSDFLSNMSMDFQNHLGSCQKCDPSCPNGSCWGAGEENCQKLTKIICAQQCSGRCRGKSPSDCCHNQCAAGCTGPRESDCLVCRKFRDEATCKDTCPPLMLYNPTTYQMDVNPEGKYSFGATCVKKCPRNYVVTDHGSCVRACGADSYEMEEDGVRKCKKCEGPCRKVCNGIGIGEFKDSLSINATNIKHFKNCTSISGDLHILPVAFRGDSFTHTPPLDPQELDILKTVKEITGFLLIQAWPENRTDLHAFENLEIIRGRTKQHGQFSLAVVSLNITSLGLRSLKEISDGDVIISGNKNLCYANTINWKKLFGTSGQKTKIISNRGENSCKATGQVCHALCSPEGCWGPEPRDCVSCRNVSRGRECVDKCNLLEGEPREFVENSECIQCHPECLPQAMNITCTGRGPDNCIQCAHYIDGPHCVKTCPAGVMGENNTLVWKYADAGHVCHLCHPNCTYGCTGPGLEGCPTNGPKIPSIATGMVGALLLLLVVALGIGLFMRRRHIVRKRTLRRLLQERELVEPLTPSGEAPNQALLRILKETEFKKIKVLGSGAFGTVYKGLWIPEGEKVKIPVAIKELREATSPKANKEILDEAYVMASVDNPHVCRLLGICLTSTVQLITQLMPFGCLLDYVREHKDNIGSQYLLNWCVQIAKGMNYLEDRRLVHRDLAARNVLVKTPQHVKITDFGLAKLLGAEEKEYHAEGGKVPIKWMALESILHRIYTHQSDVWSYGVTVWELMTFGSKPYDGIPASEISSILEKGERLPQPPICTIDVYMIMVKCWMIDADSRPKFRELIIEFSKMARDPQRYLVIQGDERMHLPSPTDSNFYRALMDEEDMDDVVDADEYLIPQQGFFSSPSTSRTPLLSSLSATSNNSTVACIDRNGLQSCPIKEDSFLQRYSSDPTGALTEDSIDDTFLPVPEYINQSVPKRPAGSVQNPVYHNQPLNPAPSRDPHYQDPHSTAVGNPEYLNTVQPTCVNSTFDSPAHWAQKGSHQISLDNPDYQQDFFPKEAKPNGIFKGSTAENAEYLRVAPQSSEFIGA

Take `COc1ccc(/C=C/C(=O)Nc2cc3c(Nc4cc(Cl)cc(Cl)c4)ncnc3s2)cc1`: the half-inhibitory concentration (IC50) worked out at 43.3 µM with HeLa [1]; 1.97 µM in the data set on MDA-MB-231; 0.45 µM with PC-3; 41.8 µM in the data set on HepG2; 21.9 µM with A549; 75.6 µM with MCF7.

As for `C#Cc1cccc(Nc2ncnc3sc(NC(=O)/C=C/c4ccccc4)cc23)c1`, the IC50 with HeLa [1] stood at 4.64 µM; in the data set with MDA-MB-231, 5.05 µM; in the data set with PC-3, 0.4 µM; with HepG2, 58.1 µM; in the data set on A549 it was 10.1 µM; in the data set on MCF7, 38.4 µM.

For `N#Cc1cccc(Nc2ncnc3cc(NC(=O)/C=C/c4ccccc4)sc23)c1`, the concentration for half-maximal inhibition (IC50) was 7.22 µM with HeLa [1]; 1.04 µM with MDA-MB-231; 0.54 µM with PC-3; 15.9 µM in the data set with HepG2; 17.2 µM in the data set with A549; > 100 µM in the data set with MCF7.

For the compound `COc1ccc(/C=C/C(=O)Nc2cc3ncnc(Nc4ccc(F)c(Cl)c4)c3s2)cc1`, the IC50 with HeLa [1] came out at 20.6 µM; in the data set with MDA-MB-231, 2.6 µM; in the data set on PC-3, 0.1 µM; in the data set with HepG2, 13.9 µM; in the data set on A549 it was 22.7 µM; in the data set with MCF7, 29.1 µM.

Consider `O=C(/C=C/c1ccccc1)Nc1cc2c(Nc3cccc(Cl)c3F)ncnc2s1`, for which the IC50 with HeLa [1] turned out to be 34.9 µM; in the data set with MDA-MB-231 it was 3.93 µM; in the data set on PC-3, 0.4 µM; with HepG2, 44.6 µM; with A549, 26.2 µM; in the data set with MCF7, 93.9 µM.

`C#Cc1cccc(Nc2ncnc3cc(OCCOC)c(OCCOC)cc23)c1` [ERLOTINIB]: the half-maximal inhibitory concentration (IC50) with HeLa [1] stood at 7.48 µM; in the data set on MDA-MB-231 it was 8.3 µM; in the data set on PC-3, 7 µM; in the data set on SK-BR-3, 49.3 µM; in the data set on SK-OV-3, 61.8 µM; with HCT-116, 23.3 µM. The concentration for half-maximal inhibition (IC50) in the data set with HepG2 was found to be 28.8 µM; in the data set with U-87 MG, 31.9 µM; in the data set with SW480, 23 µM; in the data set on A549, 3.8 µM; with MCF7 it was 11.7 µM. In addition, the Activity in the data set with HeLa [2] amounted to 15%; in the data set on HeLa [3] it was 52.7%; in the data set on HeLa [4], 26.2%; with HeLa [5], 6.06%.

Turning to `O=C(/C=C/c1ccccc1)Nc1cc2c(Nc3cc(Cl)cc(Cl)c3)ncnc2s1`, the half-maximal inhibitory concentration (IC50) in the data set with HeLa [1] worked out at 0.004 µM; with MDA-MB-231, 11.5 µM; in the data set with PC-3 it was 0.39 µM; in the data set with SK-BR-3 it was 6.46 µM; with SK-OV-3, 10.9 µM; in the data set on HCT-116 it was 3.83 µM. Besides, the 50% inhibitory concentration (IC50) with HepG2 is 21.8 µM; with U-87 MG, 4.49 µM; with MRC5, 28.8 µM; in the data set with SW480 it was 4.93 µM; in the data set on A549, 0.04 µM; with MCF7 it was 5.8 µM. Also, the Activity is 42.8% in the data set on HeLa [6], 11% in the data set with HeLa [9], 0.448% in the data set with HeLa [10] and 45.8% in the data set on HeLa [14]. The inhibition entry in data set [7] and in [11] was “Active” in each case. In addition, in data set [8], the selectivity ratio came to 720. Moreover, the inhibition entry in [12] is “inactive”. Further, the outcome in the data set with HeLa [13] was Active.

Take `O=C(/C=C/c1ccccc1)Nc1cc2ncnc(Nc3ccc(Cl)c(Cl)c3)c2s1`: the IC50 is 10.7 µM with HeLa [1]; 2.41 µM with MDA-MB-231; 0.26 µM with PC-3; 13.4 µM in the data set on HepG2; 19.4 µM in the data set on A549; > 100 µM with MCF7.

Take `O=C(/C=C/c1ccccc1)Nc1cc2ncnc(Nc3cc(Cl)cc(Cl)c3)c2s1`: the IC50 with HeLa [1] was 3.21 µM; with MDA-MB-231, 1 µM; in the data set with PC-3, 0.22 µM; with HepG2, 10.7 µM; in the data set on A549 it was 12.5 µM; in the data set with MCF7 it was > 100 µM.

Take `O=C(/C=C/c1ccccc1)Nc1cc2c(Nc3ccc(Cl)c(Cl)c3)ncnc2s1`: the IC50 in the data set on HeLa [1] is 0.43 µM; in the data set on MDA-MB-231, 4.4 µM; in the data set on PC-3, 0.48 µM; with HepG2, 30.1 µM; in the data set on A549, 7.6 µM; in the data set on MCF7 it was 15.3 µM.

Turning to `COc1ccc(/C=C/C(=O)Nc2cc3c(Nc4ccc(Cl)c(Cl)c4)ncnc3s2)cc1`, the IC50 in the data set with HeLa [1] came out at 0.033 µM; in the data set on MDA-MB-231, 16.6 µM; in the data set on PC-3, 0.79 µM; in the data set on SK-BR-3 it was 11.9 µM; in the data set with SK-OV-3 it was 10.7 µM; in the data set with HCT-116 it was 7.41 µM. Besides, the IC50 is 30.6 µM in the data set with HepG2; 4.4 µM with U-87 MG; 18.7 µM with MRC5; 5.75 µM in the data set on SW480; 3.32 µM in the data set with A549; 20.1 µM in the data set on MCF7. Also, the Activity was determined as 15.7% in the data set on HeLa [6], 15.5% in the data set with HeLa [9], 2% in the data set with HeLa [10] and 66.8% in the data set on HeLa [14]. For the same compound, the selectivity ratio in data set [8] was found to be 5.6. Further, the result with HeLa [13] was Active.

As for `O=C(/C=C/c1ccccc1)Nc1cc2c(Nc3ccc(F)c(Cl)c3)ncnc2s1`, the concentration for half-maximal inhibition (IC50) with HeLa [1] was found to be 2.14 µM; in the data set with MDA-MB-231 it was 7.6 µM; with PC-3 it was 0.7 µM; in the data set on HepG2, 22.8 µM; in the data set on A549 it was 11.2 µM; with MCF7, 14.3 µM.

Turning to `C#Cc1cccc(Nc2ncnc3cc(NC(=O)/C=C/c4ccccc4)sc23)c1`, the 50% inhibitory concentration (IC50) was 20.5 µM in the data set on HeLa [1]; 2.34 µM in the data set on MDA-MB-231; 0.7 µM in the data set with PC-3; 15.4 µM in the data set on HepG2; 26.2 µM in the data set with A549; 75.6 µM in the data set on MCF7.

With `O=C(/C=C/c1ccccc1)Nc1cc2ncnc(Nc3ccc(F)c(Cl)c3)c2s1`, the half-inhibitory concentration (IC50) in the data set with HeLa [1] amounted to 2.81 µM; with MDA-MB-231, 2.1 µM; in the data set with PC-3, 0.2 µM; in the data set on HepG2 it was 10.6 µM; in the data set with A549 it was 6.67 µM; in the data set with MCF7 it was 30.9 µM.

`O=C(/C=C/c1ccc(O)cc1)Nc1cc2c(Nc3ccc(Cl)c(Cl)c3)ncnc2s1`: the IC50 in the data set with HeLa [1] stood at 24.8 µM; with MDA-MB-231, 1.98 µM; in the data set with PC-3 it was 0.3 µM; in the data set on HepG2, 42.9 µM; with A549, 34.3 µM; in the data set on MCF7 it was 60.6 µM.
